Assay results: patent US20050260181A1, “Compositions and methods for tissue repair” (Immunopath Profile, Inc., priority 2004, published 2005)
Where two headings read alike, the source gives them in different places.

What was measured:
[1] = rats and mice; cited from earlier work
[2] = rats orally; cited from earlier work
[3] = tested on: T47D breast cancer tissue cells; experiment: MTS breast cancer mitochondrial activity assay; assay type: cell-based; details: for MTS suppression ratio (mean OD treated / mean OD control), 24 h: culture time 24 h; for MTS suppression ratio (mean OD treated / mean OD control), 24 h / MTS suppression ratio (mean OD treated / mean OD control), 48 h: 1.0 = no effect; for MTS suppression ratio (mean OD treated / mean OD control), 48 h: culture time 48 h
Experimental: In addition to and equal to the effects of high HLB surfactants for comparative testing. These comparative studies were performed and results are reported in the above table. Metabolism was comparatively measured with controls and other extracts as to the reduction of mitochondrial activity, (MTS). This compound is a substrate for the mitochondrial enzymes—and is reduced to a blue formazan product.
In the first experiments—The extracted therapeutic test agents were derived from specified tissue. Water extracts of the crushed tissue, were also prepared. For the later experiments, specific varieties of extracts were prepared and examined: Cells were obtained from American Type Culture Collection (ATCC, Washington, D.C.) and were cultured as recommended by ATCC. Experiments were performed in 96 well microtiter plates. Each well contained 1.0×10^4 cells suspended in a total volume of […]. Test wells contained the designated amount of extract in cell culture medium. Control wells contained the same amount of extract solvent in medium. Plates were incubated in an atmosphere of 5% C02 for 24 or 48 hours with extract or solvent. At this time, […] were added to each well and incubation was continued for an additional 4 hours after which time the optical density (OD) at […] of each well was recorded. In each experiment, each sample was assayed in triplicate and the mean optical density (OD) for the three wells containing the same culture was calculated.
Data are presented as suppression ratios. The suppression ratio defined here as the mean optical density (OD) for the wells containing extract divided by the mean optical density (OD) for the control wells.
The purpose of the work was to determine which therapeutic agent extracts (further separated by chromatography) explored through this methodology for anti-cancer activity. The data presented here represents semi-quantitative anti-cancer screening tests. Extracts with ratios in the range 0.51-0.74 were considered moderately active and therefore appropriate for considered use along with preventive anti-cancer treatment and active anti-cancer treatment. In co-use with anti-cancer treatment and radiation treatment, may lessen the dose and the side effects of these current therapeutic agents. Extracts with metabolism suppression ratios less than or equal to 0.5 represented a suppression of metabolism of at least 50% or greater than that of the controls and were considered definitely active potential anti-cancer agents, as was the case of High HLB Tween 80 with ethylene maturation apoptosis promoting factor with a 76% suppression of mitochondrial metabolism of cancer cells.

[4] = Circulation, blood viscosity and sedimentation rate with intermediate HLB lipid; assay type: in vivo; details: HLB 8 to 11
Description: The amount of surface-active polar lipid to include in the composition can be determined by viscosity measurements. Tissue concentration can be measured by viscosity (as used in blood serum which normally is 1.12 to 1.22 centipoise with upper limit of three). In the case of the intermediate HLB 8 to 11 (as exemplified by PC phosphatidylcholine when so used) circulation is improved 25% however there is no change in viscosity or the red blood cell sedimentation rate at these HLB ranges because of the fact that biophysical functional effects is upon the cell membrane. With its use the red cell membrane becomes more plastic, and is made more pliable thereby enhancing circulation and oxygenation.
Component No. 2 contains self-vesiculating essence of HLB 8 to 11 or 12, ideally 10 to 11, cell membrane forming and repairing liquid crystal phosphatidylcholine (PC), thereby increasing pliability of the red cell, blood vessel and endothelial membrane enhancing circulatory function by 25%. Component No. 2 optionally contains high HLB surfactants with packing parameters that not only enhance biologic function and efficiency of protein enzymes and their substrate but also promotes protein refolding and thereby normalizing biologic function. This helps to normalize the biologic function of disease promoting protein structures of Alzheimer's disease, Parkinson's disease, and Mad Cow disease. […]

| Compound | LD 50 [1] | LD 50 [2] | suppression of mitochondrial metabolism of cancer cells [3] | % normalization of Breast cancer cells ([3]; T47D cells) | MTS suppression ratio (mean OD treated / mean OD control), 24 h ([3]; T47D cells) | MTS suppression ratio (mean OD treated / mean OD control), 48 h ([3]; T47D cells) | improvement of circulation / circulatory function [4] |
| --- | --- | --- | --- | --- | --- | --- | --- |
| polyglycerol polyricinolate [PGPR] | 7.5 ml per kilogram | – | – | – | – | – | – |
| CCCCCCCCCCCCOS(=O)(=O)[O-].[Na+] [sodium lauryl sulfate] | – | 1288 mg per kilogram | – | – | – | – | – |
| polyoxyethylene Sorbitan Monooleate [Tween 80] | 7.5 ml per kilogram | – | 76% | 76% | 0.48 | 0.24 | – |
| phosphatidylcholine [PC] | – | – | – | – | 0.92 | 0.98 | 25% |
